Consider 15 compounds from paper PMC8979340 (RSC Advances, 2022).

The target in one data set is T1, human TGR5 (Homo sapiens, UniProt Q8TDU6).
T1 sequence (Q8TDU6 1-330): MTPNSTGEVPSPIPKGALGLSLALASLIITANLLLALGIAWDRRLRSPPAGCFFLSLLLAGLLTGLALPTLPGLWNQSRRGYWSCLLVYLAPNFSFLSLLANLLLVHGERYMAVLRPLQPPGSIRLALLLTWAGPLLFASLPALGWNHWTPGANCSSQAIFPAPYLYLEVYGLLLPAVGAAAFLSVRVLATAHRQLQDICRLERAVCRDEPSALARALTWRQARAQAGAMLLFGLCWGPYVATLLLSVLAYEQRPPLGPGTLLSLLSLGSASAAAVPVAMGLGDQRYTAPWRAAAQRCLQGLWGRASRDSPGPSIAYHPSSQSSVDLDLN
Briefly: cAMP HTRF TGR5 agonism assay in HEK293T cells expressing human TGR5. The settings on record: for TGR5 agonistic activity (in words): hTGR5, cAMP HTRF. It is filed as cell-based. (In TR-FRET formats the signal depends on donor and acceptor labels being close together.)

The next data set relates to A549 cells. Briefly: CCK8 cytotoxicity assay in A549 cells. The settings on record: Homo sapiens, A549, read-out: IC50 A549. It is filed as cell-based. (Tetrazolium assays rely on reduction of a dye to a coloured formazan, in cell work by metabolically active cells.)
A further data set deals with T2, mouse TGR5 (Mus musculus, UniProt Q80SS6).
T2 sequence (Q80SS6 1-329): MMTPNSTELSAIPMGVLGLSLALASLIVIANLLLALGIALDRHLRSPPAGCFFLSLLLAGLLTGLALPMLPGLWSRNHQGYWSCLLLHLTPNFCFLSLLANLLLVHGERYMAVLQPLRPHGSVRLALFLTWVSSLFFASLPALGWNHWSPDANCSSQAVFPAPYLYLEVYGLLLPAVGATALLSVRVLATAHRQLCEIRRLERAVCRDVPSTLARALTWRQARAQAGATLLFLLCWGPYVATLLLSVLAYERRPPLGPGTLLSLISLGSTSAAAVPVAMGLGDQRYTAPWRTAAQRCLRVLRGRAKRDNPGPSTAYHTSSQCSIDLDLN
In words: cAMP HTRF TGR5 agonism assay in HEK293T cells expressing mouse TGR5. It is filed as cell-based.

The subject of a further data set is HeLa cells. In words: CCK8 cytotoxicity assay in HeLa cells. It is filed as cell-based. Particulars: Homo sapiens, read-out: IC50 HeLa.
Data set [1] is described as follows: In vitro human plasma stability assay. Format: in vitro ADME.
A further data set concerns NCI-H716 cells. Briefly: In vitro GLP-1 secretion assay. Format: cell-based, human. Particulars: 4 μM, 2 h.
A further data set concerns C57 BL/6 mice. Briefly: In vivo GLP-1 secretion. Particulars: 50 mg kg−1 oral, blood 4 h later.

For orientation: EC50 means the concentration needed to bring the measured effect to its halfway point. Read a high EC50 as a need for much substance. For orientation: IC50 means the concentration at which inhibition is half-maximal. As usually defined, the half-life is the time in which the quantity being followed falls by half. Low values mean fast loss, high ones slow loss.

As for `O=C(C1Cc2ccccc2CN1Cc1ccc(Cl)cc1)N1CCN(C2CC2)c2ccccc21` (stereo not shown) [18a, (2-(4-Chlorobenzyl)-1,2,3,4-tetrahydroisoquinolin-3-yl)(4-cyclopropyl-3,4-dihydroquinoxalin-1(2H)-yl)methanone], on human TGR5, the EC50 is greater than 30000 nM and the “TGR5 agonistic activity (in words)” value is recorded as “no TGR5 agonistic activities”.
Consider `O=C(c1cc2ccccc2n1Cc1ccc(Cl)cc1)N1CCN(C2CC2)c2ccccc21` [18b, (1-(4-Chlorobenzyl)-1H-indol-2-yl)(4-cyclopropyl-3,4-dihydroquinoxalin-1(2H)-yl)methanone], for which, at human TGR5, the EC50 is greater than 30000 nM and the “TGR5 agonistic activity (in words)” value is “no TGR5 agonistic activities”.
As to `O=C(c1cc2sccc2n1Cc1ccc(Cl)cc1)N1CCN(C2CC2)c2ccccc21` [18c, (4-(4-Chlorobenzyl)-4H-thieno[3,2-b]pyrrol-5-yl)(4-cyclopropyl-3,4-dihydroquinoxalin-1(2H)-yl)methanone], on human TGR5, the EC50 is greater than 30000 nM and the “TGR5 agonistic activity (in words)” value is on record as “no TGR5 agonistic activities”.
Turning to `O=C(c1nccnc1Oc1ccc(Cl)cc1)N1CCN(C2CC2)c2ccccc21` [18d, (3-(4-Chlorophenoxy)pyrazin-2-yl)(4-cyclopropyl-3,4-dihydroquinoxalin-1(2H)-yl)methanone], it took 1500 nM to reach a half-maximal effect at human TGR5 (EC50).
In turn, `O=C(c1nccnc1Oc1ccc(F)cc1)N1CCN(C2CC2)c2ccccc21` [18e, (4-Cyclopropyl-3,4-dihydroquinoxalin-1(2H)-yl)(3-(4-fluorophenoxy)pyrazin-2-yl)methanone] returned an EC50 at human TGR5 of 442 nM.
Regarding `O=C(c1nccnc1Oc1ccccc1F)N1CCN(C2CC2)c2ccccc21` [18f, (4-Cyclopropyl-3,4-dihydroquinoxalin-1(2H)-yl)(3-(2-fluorophenoxy)pyrazin-2-yl)methanone], on human TGR5, the concentration for a half-maximal effect (EC50) is 36.7 nM.
`O=C(c1nccnc1Oc1ccccc1Cl)N1CCN(C2CC2)c2ccccc21` [18g, (3-(2-Chlorophenoxy)pyrazin-2-yl)(4-cyclopropyl-3,4-dihydroquinoxalin-1(2H)-yl)methanone]: the 50% inhibitory concentration (IC50) with A549 cells and with HeLa cells was greater than 50000 nM throughout. Besides, the EC50 at human TGR5 was 1.44 nM; at mouse TGR5, 120 nM.
With `COc1ccc(Oc2nccnc2C(=O)N2CCN(C3CC3)c3ccccc32)cc1` [18h, (4-Cyclopropyl-3,4-dihydroquinoxalin-1(2H)-yl)(3-(4-methoxyphenoxy)pyrazin-2-yl)methanone], a half-maximal response on human TGR5 (EC50) required 196 nM. This lies in the sub-micromolar range.
On to `Cc1ccc(Oc2nccnc2C(=O)N2CCN(C3CC3)c3ccccc32)cc1` [18i, (4-Cyclopropyl-3,4-dihydroquinoxalin-1(2H)-yl)(3-(p-tolyloxy)pyrazin-2-yl)methanone], for which the EC50 at human TGR5 was 83.2 nM.
Take `O=C(c1nccnc1Oc1ccc(Cl)cc1Cl)N1CCN(C2CC2)c2ccccc21` [18j, (4-Cyclopropyl-3,4-dihydroquinoxalin-1(2H)-yl)(3-(2,4-dichlorophenoxy)pyrazin-2-yl)methanone]: the IC50 with A549 cells and in the data set on HeLa cells was greater than 50000 nM each time. The EC50 amounted to 9.89 nM at human TGR5 and 538 nM on mouse TGR5.
With `O=C(c1nccnc1Oc1cc(Cl)ccc1Cl)N1CCN(C2CC2)c2ccccc21` [18k, (4-Cyclopropyl-3,4-dihydroquinoxalin-1(2H)-yl)(3-(2,5-dichlorophenoxy)pyrazin-2-yl)methanone], the IC50 with A549 cells was greater than 50000 nM. Moreover, in data set [1], the half-life was greater than 4.82 h, the amount remaining at 0 h came out at 100%, the share remaining at 0.5 h came to 104% and the amount remaining at 1 h amounted to 102%. For the same compound, the share remaining at 2 h in data set [1] is 85.4%. Moreover, the “GLP-1 secretion compared to control” value in the data set with NCI-H716 cells is given as “increase the secretion of GLP-1”. At human TGR5, this compound yielded an EC50 of 0.58 nM. Moreover, on mouse TGR5, the concentration for a half-maximal effect (EC50) was determined as 267 nM. Also, the IC50 in the data set on HeLa cells is greater than 50000 nM. In addition, in the data set on C57 BL/6 mice, the “GLP-1 secretion compared to control” value was “increase GLP-1 secretion”.
In turn, `O=C(c1nccnc1Oc1ccc(-c2ccccc2)cc1)N1CCN(C2CC2)c2ccccc21` [18l, (3-([1,1′-Biphenyl]-4-yloxy)pyrazin-2-yl)(4-cyclopropyl-3,4-dihydroquinoxalin-1(2H)-yl)methanone] yielded an EC50 at human TGR5 of 895 nM. This lies in the sub-micromolar range.
`O=C(c1nccnc1Oc1cc(Cl)ccc1Cl)N1CCN(c2ccccc2F)CC1` [18o, (3-(2,5-Dichlorophenoxy)pyrazin-2-yl)(4-(2-fluorophenyl)piperazin-1-yl)methanone] yielded an EC50 at human TGR5 greater than 10000 nM.
With `CN(C(=O)c1nccnc1Oc1cc(Cl)ccc1Cl)c1ccc(F)cc1` [18r, 3-(2,5-Dichlorophenoxy)-N-(4-fluorophenyl)-N-methylpyrazine-2-carboxamide], the EC50 at human TGR5 is greater than 10000 nM.
Turning to `O=C(c1nccnc1Oc1cc(Cl)ccc1Cl)N1CCOc2ccccc21` [18u, (3-(2,5-Dichlorophenoxy)pyrazin-2-yl)(2,3-dihydro-4H-benzo[b][1,4]oxazin-4-yl)methanone], the EC50 at human TGR5 was greater than 10000 nM.
